Laboratory results reported in US20050197364A1, “Amide compounds as ion channel ligands and uses thereof” (priority 2003, published 2005).

Target: T1, VR1 receptor (Rattus norvegicus, UniProt O35433)
T1 construct: Dorsal root ganglion (DRG) neurons were recovered from either neonatal or adult rats; endogenous in cells; host or cells: primary rat dorsal root ganglion neurons
Assay: Whole-cell patch clamp electrophysiology, capsaicin induced current in DRG neurons
Type: cell-based
Settings: 20 nM, 40 nM, 100 nM and 200 nM
Method: Dorsal root ganglion (DRG) neurons were recovered from either neonatal or adult rats and plated onto poly-D-lysine coated glass coverslips. The plated neurons were transferred into a chamber to allow drug solutions to be added to the cells using a computer-controlled solenoid-valve based perfusion system. The cells were imaged using standard DIC optics. Cells were patched using finely-pulled glass electrodes. Voltage-clamp electrophysiology experiments were carried out using an Axon Instruments Multiclamp amplified controlled by pCLAMP8 software.
The cells were placed into a whole-cell voltage clamp and help at a voltage of −80 mV while monitoring the membrane current in gap-free recording mode. 500 nM capsaicin was added for 30 seconds as a control. Test compounds at various concentrations at ranging from (10-1000 nM) were added to the cells for 1 minute prior to a 30 second capsaicin application. Differences between control experiments and drug positive capsaicin experiments were used to determine the efficacy of each test compound. All compounds that inhibited capsaicin induced current greater than 50% were considered positives.

T1 sequence (O35433 whole entry): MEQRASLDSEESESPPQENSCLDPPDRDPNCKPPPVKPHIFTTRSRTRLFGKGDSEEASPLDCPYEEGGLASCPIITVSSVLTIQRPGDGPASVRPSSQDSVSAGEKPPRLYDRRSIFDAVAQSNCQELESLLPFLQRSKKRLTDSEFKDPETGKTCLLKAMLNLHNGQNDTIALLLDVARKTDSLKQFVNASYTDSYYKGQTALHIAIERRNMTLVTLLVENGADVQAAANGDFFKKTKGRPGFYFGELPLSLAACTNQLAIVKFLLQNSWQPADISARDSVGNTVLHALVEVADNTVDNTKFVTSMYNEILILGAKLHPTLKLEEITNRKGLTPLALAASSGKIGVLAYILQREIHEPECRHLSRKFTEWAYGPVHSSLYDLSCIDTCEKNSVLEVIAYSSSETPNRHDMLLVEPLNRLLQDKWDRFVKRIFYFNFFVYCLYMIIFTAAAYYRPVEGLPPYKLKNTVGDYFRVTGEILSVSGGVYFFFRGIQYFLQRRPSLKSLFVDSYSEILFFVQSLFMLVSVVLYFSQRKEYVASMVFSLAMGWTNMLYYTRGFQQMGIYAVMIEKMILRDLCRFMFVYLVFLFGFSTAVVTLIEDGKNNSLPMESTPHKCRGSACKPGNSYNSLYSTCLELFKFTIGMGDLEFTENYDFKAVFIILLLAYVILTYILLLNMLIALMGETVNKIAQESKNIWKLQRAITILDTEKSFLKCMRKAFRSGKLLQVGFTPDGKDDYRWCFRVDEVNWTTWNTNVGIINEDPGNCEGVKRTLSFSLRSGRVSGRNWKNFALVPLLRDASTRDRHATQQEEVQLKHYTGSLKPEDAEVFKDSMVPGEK

SMILES	dose response of inhibiting a capsaicin induced calcium ion influx (FIG. 4)
CC(C)(C)c1ccc(NC(=O)c2ccc(-c3ncccc3Cl)cc2)cc1 [Compound 24]	increasing effectiveness

Same assay, conditions: DRG neuron; 200 nM compound, treatment time 25 seconds; 500 nM capsaicin; rat DRG neurons, -80 mV

SMILES	inhibition at 0.2 µM [%]
CC(C)(C)c1ccc(NC(=O)c2ccc(-c3ncccc3Cl)cc2)cc1 [Compound 24]	100

System: VR1 receptor
Assay: High throughput calcium imaging assay (Fura2, Flex Station) of VR1 antagonists, pH 5.1 stimulus
Type: cell-based
Settings: 1 uM compound; inhibition of calcium ion influx induced by capsaicin stimulation

SMILES	% Inhibition @ 1 uM
CC(C)(C)c1ccc(NC(=O)c2ccc(-c3ncccc3Cl)cc2)cc1 [Compound 24]	+ + + + (compound exhibited 75% or greater inhibition of calcium ion influx induced by capsaicin stimulation)
O=C(Nc1ncc(C(F)(F)F)cc1Cl)c1ccc(-c2ncccc2Cl)cc1F [Compound 98]	+ (compound exhibited 0-25% inhibition of calcium ion influx induced by capsaicin stimulation)
COc1cc(C(=O)Nc2cccc(OC(F)(F)F)c2)ccc1-c1ncccc1Cl [Compound 252]	+ (“+” compound exhibited 0-25% inhibition of calcium ion influx induced by capsaicin stimulation.)
O=C(Nc1ccncc1)c1ccc(-c2ncccc2Cl)cc1 [Compound 7]	+ + + + (compound exhibited 75% or greater inhibition of calcium ion influx induced by capsaicin stimulation)
O=C(Nc1cccc(Cl)c1Cl)c1ccc(-c2ncccc2Cl)c(F)c1 [Compound 122]	+ + + + (compound exhibited 75% or greater inhibition of calcium ion influx induced by capsaicin stimulation)
COc1ccc(NC(=O)c2ccc(-c3ncccc3Cl)cc2)cn1 [Compound 32]	+ (compound exhibited 0-25% inhibition of calcium ion influx induced by capsaicin stimulation)
COc1ccc(NC(=O)c2ccc(-c3ncccc3Cl)c(F)c2)cn1 [Compound 153]	+ + (compound exhibited 25-50% inhibition of calcium ion influx induced by capsaicin stimulation)
O=C(Nc1cc[nH]n1)c1ccc(-c2ncccc2Cl)c(F)c1 [Compound 158]	+ (compound exhibited 0-25% inhibition of calcium ion influx induced by capsaicin stimulation)
O=C(Nc1cccnc1)c1ccc(-c2ncccc2Cl)cc1 [Compound 8]	+ + + + (compound exhibited 75% or greater inhibition of calcium ion influx induced by capsaicin stimulation)
CCn1c2ccccc2c2cc(NC(=O)c3ccc(-c4ncccc4Cl)c(OC)c3)ccc21 [Compound 234]	+ (“+” compound exhibited 0-25% inhibition of calcium ion influx induced by capsaicin stimulation.)
CCC1c2ccccc2-c2cc(NC(=O)c3ccc(-c4ncccc4Cl)cc3)ccc21 (centres unmarked) [Compound 55]	+ + (compound exhibited 25-50% inhibition of calcium ion influx induced by capsaicin stimulation)
O=C(Nc1ccccc1)c1ccc(-c2ncccc2Cl)cn1 [Compound 289]	+ + + + (“+ + + +” compound exhibited 75% or greater inhibition of calcium ion influx induced by capsaicin stimulation.)
COc1cc(C(=O)Nc2ccc(F)c(F)c2)ccc1-c1ncccc1Cl [Compound 254]	+ + + (“+ + +” compound exhibited 50-75% inhibition of calcium ion influx induced by capsaicin stimulation.)
COc1ccc(NC(=O)c2ccc(-c3ncccc3Cl)cc2)cc1O [Compound 271]	+ (“+” compound exhibited 0-25% inhibition of calcium ion influx induced by capsaicin stimulation.)
CCOc1cccc(NC(=O)c2ccc(-c3ncccc3Cl)cn2)c1 [Compound 347]	+ + + + (“+ + + +” compound exhibited 75% or greater inhibition of calcium ion influx induced by capsaicin stimulation.)
CC(C)Oc1cccc(NC(=O)c2ccc(-c3ncccc3Cl)cc2)c1 [Compound 278]	+ (“+” compound exhibited 0-25% inhibition of calcium ion influx induced by capsaicin stimulation.)
O=C(Nc1ccc2ncccc2c1)c1ccc(-c2ncccc2Cl)cc1F [Compound 107]	+ + (compound exhibited 25-50% inhibition of calcium ion influx induced by capsaicin stimulation)
COc1cc(C(=O)Nc2cccc(C(=O)O)c2)ccc1-c1ncccc1Cl [Compound 241]	+ (“+” compound exhibited 0-25% inhibition of calcium ion influx induced by capsaicin stimulation.)
